Measured values: patent publication US20180318379A1, “INHIBITION OF TRIGGERING RECEPTOR EXPRESSED ON MYELOID CELLS 1 (TREM1) TO TREAT CENTRAL NERVOUS SYSTEM DISORDERS” (The Board of Trustees of the Leland Stanford Junior …, priority 2017, published 2018)

Tests used:
TREM1 [1] = assay: Neuroscore after MCAo-RP stroke in mice; type: in vivo; conditions: 2 days after MCAo-RP; LP17 vs scrambled peptide; n=15-18 per group; ANOVA effect of LP17 p=0.008
TREM1 [2] = assay: FACS quantification of brain myeloid cells after MCAo-RP stroke; type: in vivo, mice
Experimental: FIG. 12. A representation of the dynamics of immune present at the indicated days after stroke (or the temporal dynamics of immune cell subsets). Stroke was modeled in […] 3 mo male mice using 45 minutes of middle cerebral artery occlusion (MCAo) followed by reperfusion (RP).
These plots show increased CD11b^+/CD45^lo microglia and reduced CD11b^+/CD45^hi macrophages with LP17 treatment.

[3] = 2 days after MCAo-RP, LP17 vs scrambled peptide

LQVTDSGLYRCVIYHPP [LP17]
neuroscores (TREM1 [1]): improved
CD11b+/CD45hi macrophages in stroked hemisphere (FACS) (TREM1 [2]; [3]): reduced
CD11b+/CD45lo microglia in stroked hemisphere (FACS) (TREM1 [2]; [3]): increased
infiltration of macrophages after stroke (TREM1 [2]; after MCAo-RP stroke): reduces infiltration of macrophages
